The source of these data is ChEMBL document CHEMBL1141153, “A molecular target for suppression of the evolution of antibiotic resistance: inhibition of the Escherichia coli RecA protein by N(6)-(1-naphthyl)-ADP” (J Med Chem, 2005).

For the assay, the target named is T1, Protein RecA (Escherichia coli K-12) (UniProt P0A7G6).
T1 sequence (whole entry): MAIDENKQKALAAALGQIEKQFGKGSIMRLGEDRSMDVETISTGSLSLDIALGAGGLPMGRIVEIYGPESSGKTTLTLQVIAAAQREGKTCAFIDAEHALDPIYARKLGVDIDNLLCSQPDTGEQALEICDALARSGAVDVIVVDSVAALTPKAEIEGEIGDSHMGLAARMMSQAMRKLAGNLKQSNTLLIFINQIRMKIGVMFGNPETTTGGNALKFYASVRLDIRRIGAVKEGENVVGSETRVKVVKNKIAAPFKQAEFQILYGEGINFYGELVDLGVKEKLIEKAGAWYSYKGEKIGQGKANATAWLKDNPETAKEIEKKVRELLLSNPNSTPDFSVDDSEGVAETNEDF
Nature of the assay: In vitro apparent inhibition constant against Escherichia coli RecA protein.

Consider `O=P(O)(O)OP(=O)(O)OC[C@H]1O[C@@H](n2cnc3c(Nc4cccc5ccccc45)ncnc32)[C@H](O)[C@@H]1O`, for which the Kic came to 46 µM.
